The source of these data is patent US6399625B1, “1-oxorapamycins” (Wyeth, priority 2000, dated 2002).

Assay type in all cases: cell-based
In one assay the test system is A. fumigatus GC 3092. The experiment in a line: Antifungal activity, microtiter broth dilution MIC. The settings on record: Aspergillus fumigatus, GC3092, read-out: ANTIFUNGAL ACTIVITY (MIC). Here is the method: (§1) The antifungal activity for the 1-oxorapamycins of this invention was confirmed in a standard pharmacological test procedure which measured the ability of the compound being evaluated to inhibit fungal growth. 1-Oxorapamycin (Compound I), 1-oxorapamycin 42-ester with 3-hydroxy-2-(hydroxymethyl)-2-methylpropionic acid (Compound II), and 42-O-(2-hydroxy)ethyl 1-oxorapamycin (Compound III) were evaluated as representative compounds of this invention. The procedure used and results obtained are briefly described below. A 96 U-bottom microtiter plate was filled (50 μl/well) with RPMI 1640. The compounds to be evaluated were placed in appropriate wells, and serial diluted in successive wells to provide 11 dilutions. The concentrations ranged from 64 through 0.06 μg/ml. An adjusted inoculum of fungi (50 μl) was added to each well and the plates were incubated at 35° C. for 24-48 hours. […] Nystatin and rapamycin were used for the purpose of comparison.
A general note: Broth dilution looks for growth in wells or tubes with falling amounts of substance.

The next assay deals with A. niger GC 3091. The experiment in a line: Antifungal activity, microtiter broth dilution MIC. As to conditions: Aspergillus niger, GC3091, RPMI 1640, 35° C., 24-48 hours. The protocol: as §1
Another assay deals with A. niger GC 6591. The experiment in a line: Antifungal activity, microtiter broth dilution MIC. The settings on record: Aspergillus niger, GC6591, RPMI 1640, 35° C., 24-48 hours. Here is the method: as §1
The next assay deals with C. albicans GC 3064. The experiment in a line: Antifungal activity, microtiter broth dilution MIC. The settings on record: Candida albicans, GC3064, RPMI 1640, 35° C., 24-48 hours. The protocol:
as §1

A further assay has as its system C. albicans GC 3065. The experiment in a line: Antifungal activity, microtiter broth dilution MIC. The settings on record: Candida albicans, GC3065, RPMI 1640, 35° C., 24-48 hours. The protocol:
as §1

A further assay has as its system C. albicans GC 3066. The experiment in a line: Antifungal activity, microtiter broth dilution MIC. As to conditions: Candida albicans, GC3066, RPMI 1640, 35° C., 24-48 hours. Here is the method: as §1
In a further assay the test system is C. krussii GC 3067. The experiment in a line: Antifungal activity, microtiter broth dilution MIC. The settings on record: RPMI 1640, 35° C., 24-48 hours. The protocol: as §1
For a further assay, the system named is C. lusitaniae GC 3068. The experiment in a line: Antifungal activity, microtiter broth dilution MIC. As to conditions: Clavispora lusitaniae, RPMI 1640, 35° C., 24-48 hours. Here is the method: as §1
The test system of a further assay is C. parapsilosis GC 3074. The experiment in a line: Antifungal activity, microtiter broth dilution MIC. The settings on record: Lodderomyces parapsilosis, GC3074, RPMI 1640, 35° C., 24-48 hours. The protocol:
as §1

The subject of a further assay is C. parapsilosis GC 3075. The experiment in a line: Antifungal activity, microtiter broth dilution MIC. The settings on record: Lodderomyces parapsilosis, GC3075, RPMI 1640, 35° C., 24-48 hours. The protocol: as §1
In a further assay the test system is C. parapsilosis GC 3076. The experiment in a line: Antifungal activity, microtiter broth dilution MIC. As to conditions: Lodderomyces parapsilosis, GC3076, RPMI 1640, 35° C., 24-48 hours. Here is the method: as §1
The subject of the next assay is C. pseudotropicalis 3070. The experiment in a line: Antifungal activity, microtiter broth dilution MIC. As to conditions: Kluyveromyces marxianus, RPMI 1640, 35° C., 24-48 hours. The protocol:
as §1

A further assay has as its system C. tropicalis GC 3080. The experiment in a line: Antifungal activity, microtiter broth dilution MIC. As to conditions: Candida tropicalis, GC3080, RPMI 1640, 35° C., 24-48 hours. The protocol:
as §1

Another assay concerns C. tropicalis GC 3081. The experiment in a line: Antifungal activity, microtiter broth dilution MIC. The settings on record: Candida tropicalis, GC3081, RPMI 1640, 35° C., 24-48 hours. The protocol: as §1
Assay [1] has as its system 3T3 (ovarian) tumor cell line. The experiment in a line: Antineoplastic activity, tumor cell growth inhibition (sulforhodamine B). The settings on record: Mus musculus, NIH3T3, 3T3 cells, 48 hours. From the text:
(§2) Antineoplastic activity for the compounds of this invention was confirmed by evaluating the antineoplastic activity of representative compounds of this invention (Compounds I-III) against six tumor cell lines in vitro. Briefly, tumor cells from six cell lines were placed in wells of a 96 well microtiter plate. The following tumor cell lines were used: 3T3 (ovarian), 3T3/H2N (ovarian—resistant to cis-platin), A431 (vulva epidermoid origin), SW620 (colon), SKBR3 (breast), and MDA-435 (breast). The tumors cells were grown in the presence of serial dilutions of the compound to be evaluated for 48 hours, and cell growth determined using a colorimetric procedure (sulforhrodamine B). The inhibition of growth was calculated compared to the number of cells at the time of test compound addition. Results are expressed as an IC50 (μg/ml); N/A indicates the compound was not evaluated against that cell line. The following IC50s was listed on Table 2.

For assay [2], the system named is 3T3/H2N (ovarian—resistant to cis-platin) tumor cell line. The assay is described as above. The settings on record: 3T3/H2N cells, 48 hours.
From the text: as §2

The subject of assay [3] is A431 (vulva epidermoid origin) tumor cell line. The assay is described as above. As to conditions: Homo sapiens, A-431, A431 cells, 48 hours.
From the text: as §2

For assay [4], the system named is MDA-435 (breast) tumor cell line. The assay is described as above. The settings on record: MDA435 cells, 48 hours.
From the text: as §2

The subject of assay [5] is SKBR3 (breast) tumor cell line. The assay is described as above. As to conditions: Homo sapiens, SK-BR-3, SKBR3 cells, 48 hours.
From the text: as §2

For assay [6], the system named is SW620 (colon) tumor cell line. The description is as above. As to conditions: Homo sapiens, SW-620, SW620 cells, 48 hours.
From the text: as §2

The test system of a further assay is SH-SY5Y cells. The experiment in a line: Neuroregeneration activity, neurite outgrowth. As to conditions: aphidicolin pretreated, NGF plus test compound, mean ± SEM. The source says:
The neuroregeneration activity for the compounds of this invention was confirmed in a standard pharmacological test procedure by evaluating 1-oxo-rapamycin (Compound I) as representative compound of this invention, against SH-SY5Y cells in vitro [Gold et al., Exp Neurol 147: 269-278, 1997]. Briefly, SH-SY5Y cells were placed in 6-well plate treated with aphidicolin for 5 days followed by the test compounds using 6-well plates. For controls, wells were untreated, or treated with nerve growth factor (NGF) alone. Test wells were treated with NGF plus compound I or rapamycin. Cells were photographed at 168 hours. Analysis of neuritic lengths was performed on photographic prints using a Houston Instrument HI-PAD digitizing tablet connected to an IBM XT computer with appropriate software (Bioquant IV, R&M Biometrics, Nashville, Tenn.). Mean values for axonal areas were compared using by ANOVA (STATVIEW, Abacus Concepts, Inc., Berkeley, Calif. The following table summarizes the results that were obtained.

A word on the MIC: it is the least concentration at which growth counts as inhibited. As usually defined, the IC50 is the concentration needed to halve the response being measured.

In brackets after ≈: the same amount, converted by molar mass. Like-named read-outs stand apart in the source and are kept apart here.

`CO[C@H]1CC2CC[C@@H](C)[C@@](O)(O2)C(=O)C(=O)N2CCCC[C@H]2C(=O)O[C@H]([C@H](C)CC2CC[C@@H](O)[C@H](OC)C2)CC(=O)[C@H](C)/C=C(\C)[C@@H](O)[C@@H](OC)C(=O)[C@H](C)C[C@H](C)C(=O)C/C=C/C=C/1C` (stereo partly shown) [Compound I, 1-Oxo-rapamycin]: the MIC worked out at 64 µg/mL (≈ 68.8 µM) in the assay on A. fumigatus GC 3092; 64 µg/mL (≈ 68.8 µM) against A. niger GC 3091; 64 µg/mL (≈ 68.8 µM) in the assay with A. niger GC 6591; 8 µg/mL (≈ 8.6 µM) in the assay with C. albicans GC 3064; 2 µg/mL (≈ 2.15 µM) in the assay with C. albicans GC 3065; 2 µg/mL (≈ 2.15 µM) against C. albicans GC 3066. Also, the minimal inhibitory concentration (MIC) against C. krussii GC 3067 was determined as 16 µg/mL (≈ 17.2 µM); in the assay on C. lusitaniae GC 3068 (GC3068, C. lusitaniae GC 3068, first listing (r26), read-out: ANTIFUNGAL ACTIVITY (MIC)), 0.5 µg/mL (≈ 0.538 µM); in the assay on C. lusitaniae GC 3068 (GC3068, read-out: ANTIFUNGAL ACTIVITY (MIC), C. lusitaniae GC 3068, second listing (r28)), 2 µg/mL (≈ 2.15 µM); against C. parapsilosis GC 3074, 2 µg/mL (≈ 2.15 µM); against C. parapsilosis GC 3075 it was 1 µg/mL (≈ 1.08 µM); in the assay on C. parapsilosis GC 3076, 2 µg/mL (≈ 2.15 µM). Further, the minimal inhibitory concentration (MIC) against C. pseudotropicalis 3070 turned out to be 0.5 µg/mL (≈ 0.538 µM); against C. tropicalis GC 3080, 2 µg/mL (≈ 2.15 µM); with C. tropicalis GC 3081, 0.5 µg/mL (≈ 0.538 µM). In addition, the IC50 was 0.89 µg/mL (≈ 0.957 µM) in assay [1]; 2.3 µg/mL (≈ 2.47 µM) in assay [2]; 6.2 µg/mL (≈ 6.67 µM) in [3]; 6 µg/mL (≈ 6.45 µM) in assay [4]; 3.6 µg/mL (≈ 3.87 µM) in assay [5]; 12.7 µg/mL (≈ 13.7 µM) in [6]. The “Mean Neurite Lengths after 168 h, Neurite Length” value with SH-SY5Y cells was found to be 233.7 ± 8.8 μm.
